From patent publication EP0070331A2, “Cephalosporin derivatives, their preparation, compositions containing them, and their use in the treatment of diseases” (F. HOFFMANN-LA ROCHE & CO. Aktiengesellschaft, priority 1981, dated 1983)

What was measured:
[1] = test system: Neisseria meningitidis; assay: Curative dose (CD50) in infected mice, Neisseria meningitidis; type: in vivo; settings: po, Maus, dose at which 50% of mice survive
Text: (§1) Die orale antimikrobielle Wirksamkeit der erfindungsgemässen Produkte kann anhand von in vivo-Versuchen an der Maus nachgewiesen werden.

[2] = Blood levels after oral administration in the rat; type: in vivo; settings: Ratte, orale Dosis 20 mg/kg, read-out: Antibiotikumkonzentration im Blut
Text: ..Die nach oraler Gabe erzielten Blutspiegelwerte ergeben sich gemäss folgendem Vergleich an der Ratte.

[3] = test system: Streptococcus pyogenes; assay: Curative dose (CD50) in infected mice, Streptococcus pyogenes; type: in vivo; settings: Maus, dose at which 50% of mice survive
[4] = test system: Serratia marcescens; assay: Curative dose (CD50) in infected mice, Serratia marcescens; type: in vivo; settings: Maus, dose at which 50% of mice survive
Text: as §1

[5] = in vivo; settings: mouse, po
[6] = test system: Escherichia coli; assay: Curative dose (CD50) in infected mice, Escherichia coli; type: in vivo; settings: Maus, dose at which 50% of mice survive

| Compound | ED50 [1] [mg/kg] | concentration at 0.25 h ([2]; after 15 min) [ng/mL] | concentration at 0.5 h ([2]; after 30 min) [ng/mL] | concentration at 0.75 h ([2]; after 45 min) [ng/mL] | concentration at 1 h ([2]; after 60 min) [ng/mL] | concentration at 1.5 h ([2]; after 90 min) [ng/mL] | concentration at 2.5 h ([2]; after 150 min) [ng/mL] | ED50 ([3]; po) [mg/kg] | ED50 ([4]; po) [mg/kg] | ED50 ([4]; sc) [mg/kg] | LD50 at 24 h [5] [mg/kg] | ED50 ([3]; sc) [mg/kg] | ED50 ([6]; po) [mg/kg] | ED50 ([6]; sc) [mg/kg] |
| --- | --- | --- | --- | --- | --- | --- | --- | --- | --- | --- | --- | --- | --- | --- |
| CO/N=C(\C(=O)N[C@@H]1C(=O)N2C(C(=O)OCOC(=O)C(C)(C)C)=C(CSc3nc(C(=O)OCOC(=O)C(C)(C)C)nn3C)CS[C@H]12)c1csc(N)n1 [Produkt A, Methylen (6R,7R)-7-[2-(2-Amino-4-thiazolyl)-2-[ (Z)-methoxyimino]-acetamido]-3-[[[2-methyl-5-[[(pivaloyloxy)methoxy]carbonyl]-2H-1,2,4-triazol-3-yl]thio]methyl]-8-oxo-5-thia-1-azabicyclo[4.2.0]oct-2-en-2-carboxylat-pivalat] | 0.14 | 6000 | 12000 | 12000 | 10000 | 8000 | 5000 | 0.95 | 0.68 | 0.05 | > 4000 | – | – | – |
| CC1=C(C(=O)O)N2C(=O)[C@@H](NC(=O)[C@H](N)c3ccccc3)[C@H]2SC1 [Cephalexin] | 1.2 | – | – | – | – | – | – | 1.8 | > 50 | > 50 | – | 1.2 | 3.2 | 2.1 |
